Source: US20230085307A1, “PYRIDAZINONE COMPOUND AND HERBICIDE” (NISSAN CHEMICAL CORPORATION, priority 2019, published 2023)

Assays:
blackgrass [1] = test: Test Example 5: herbicidal effect by foliage application, plastic box (Table 20, symbol J); assay type: in vivo, blackgrass (Alopecurus myosuroides); details: evaluated three weeks after application
Method in brief: (§1)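 Plants sown in sterilized diluvial soil and grown 14 days in a greenhouse at 25° C to 30° C, then sprayed on the foliage with the compound's emulsion diluted in water to a predetermined herbicide amount. Injury to weeds and crops scored three weeks after application on a visual rating scale.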

velvetleaf [2] = test: Test Example 4: herbicidal effect by soil treatment (Table 19, symbol M); assay type: in vivo, velvetleaf (Abutilon theophrasti); details: amount of applied herbicide 320 g/ha
Method in brief: (§2)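 Three weeks of greenhouse growth at 25° C. to 30° C. followed a uniform surface spray of water-diluted emulsion at a predetermined herbicide amount. Seeds had been sown beforehand under about 1.5 cm of sterilized diluvial soil. Grading followed criteria set out in an earlier test.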

wild oat [3] = test: Test Example 4: herbicidal effect by soil treatment (Table 19, symbol I); assay type: in vivo, wild oat (Avena fatua); details: amount of applied herbicide 320 g/ha
Method in brief: as §2

southern crabgrass [4] = test: Test Example 4: herbicidal effect by soil treatment (Table 19, symbol F); assay type: in vivo, southern crabgrass (Digitaria ciliaris); details: amount of applied herbicide 320 g/ha
Method in brief: as §2

barnyard grass [5] = test: Test Example 3: herbicidal effect by foliage application, Wagner pot (Table 18, symbol H); assay type: in vivo, barnyard grass (Echinochloa crus-galli)
Method in brief: (§3)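 Plants were sown in alluvial soil held under 0.1–0.5 cm standing water and grown 14 days in a greenhouse at 25–30 °C. An emulsifiable formulation, water-diluted to the set dose, was then sprayed onto the foliage, and effects were scored three weeks later using previously defined criteria.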

rice flat sedge = test: Test Example 3: herbicidal effect by foliage application, Wagner pot (Table 18, symbol E); assay type: in vivo, rice flat sedge (Cyperus iria)
Method in brief: as §3

barnyard grass [6] = test: Test Example 4: herbicidal effect by soil treatment (Table 19, symbol H); assay type: in vivo, barnyard grass (Echinochloa crus-galli); details: amount of applied herbicide 320 g/ha
Method in brief: as §2

wild oat [7] = test: Test Example 5: herbicidal effect by foliage application, plastic box (Table 20, symbol I); assay type: in vivo, wild oat (Avena fatua); details: evaluated three weeks after application
Method in brief: as §1

redroot pigweed [8] = test: Test Example 5: herbicidal effect by foliage application, plastic box (Table 20, symbol N); assay type: in vivo, redroot pigweed (Amaranthus retroflexus); details: evaluated three weeks after application
Method in brief: as §1

Italian ryegrass [9] = test: Test Example 5: herbicidal effect by foliage application, plastic box (Table 20, symbol K); assay type: in vivo, Italian ryegrass (Lolium multiflorum); details: evaluated three weeks after application
Method in brief: as §1

Italian ryegrass [10] = test: Test Example 4: herbicidal effect by soil treatment (Table 19, symbol K); assay type: in vivo, Italian ryegrass (Lolium multiflorum); details: amount of applied herbicide 320 g/ha
Method in brief: as §2

chickweed [11] = test: Test Example 5: herbicidal effect by foliage application, plastic box (Table 20, symbol P); assay type: in vivo, common chickweed (Stellaria media); details: evaluated three weeks after application
Method in brief: as §1

velvetleaf [12] = test: Test Example 5: herbicidal effect by foliage application, plastic box (Table 20, symbol M); assay type: in vivo, velvetleaf (Abutilon theophrasti); details: evaluated three weeks after application
Method in brief: as §1

windgrass [13] = test: Test Example 4: herbicidal effect by soil treatment (Table 19, symbol L); assay type: in vivo, windgrass (Apera spica-venti); details: amount of applied herbicide 320 g/ha
Method in brief: as §2

lambsquarters [14] = test: Test Example 5: herbicidal effect by foliage application, plastic box (Table 20, symbol O); assay type: in vivo, lambsquarters (Chenopodium album); details: evaluated three weeks after application
Method in brief: as §1

persian speedwell [15] = test: Test Example 5: herbicidal effect by foliage application, plastic box (Table 20, symbol R); assay type: in vivo, Persian speedwell (Veronica persica); details: evaluated three weeks after application
Method in brief: as §1

lambsquarters [16] = test: Test Example 4: herbicidal effect by soil treatment (Table 19, symbol O); assay type: in vivo, lambsquarters (Chenopodium album); details: amount of applied herbicide 320 g/ha
Method in brief: as §2

redroot pigweed [17] = test: Test Example 4: herbicidal effect by soil treatment (Table 19, symbol N); assay type: in vivo, redroot pigweed (Amaranthus retroflexus); details: amount of applied herbicide 320 g/ha
Method in brief: as §2

false cleavers = test: Test Example 5: herbicidal effect by foliage application, plastic box (Table 20, symbol Q); assay type: in vivo, false cleavers (Galium spurium); details: evaluated three weeks after application
Method in brief: as §1

southern crabgrass [18] = test: Test Example 5: herbicidal effect by foliage application, plastic box (Table 20, symbol F); assay type: in vivo, southern crabgrass (Digitaria ciliaris); details: evaluated three weeks after application
Method in brief: as §1

green foxtail [19] = test: Test Example 5: herbicidal effect by foliage application, plastic box (Table 20, symbol G); assay type: in vivo, green foxtail (Setaria viridis); details: evaluated three weeks after application
Method in brief: as §1

barnyard grass [20] = test: Test Example 5: herbicidal effect by foliage application, plastic box (Table 20, symbol H); assay type: in vivo, barnyard grass (Echinochloa crus-galli); details: evaluated three weeks after application
Method in brief: as §1

windgrass [21] = test: Test Example 5: herbicidal effect by foliage application, plastic box (Table 20, symbol L); assay type: in vivo, windgrass (Apera spica-venti); details: evaluated three weeks after application
Method in brief: as §1

chickweed [22] = test: Test Example 4: herbicidal effect by soil treatment (Table 19, symbol P); assay type: in vivo, common chickweed (Stellaria media); details: amount of applied herbicide 320 g/ha
Method in brief: as §2

green foxtail [23] = test: Test Example 4: herbicidal effect by soil treatment (Table 19, symbol G); assay type: in vivo, green foxtail (Setaria viridis); details: amount of applied herbicide 320 g/ha
Method in brief: as §2

blackgrass [24] = test: Test Example 4: herbicidal effect by soil treatment (Table 19, symbol J); assay type: in vivo, blackgrass (Alopecurus myosuroides); details: amount of applied herbicide 320 g/ha
Method in brief: as §2

Chinese sprangletop = test: Test Example 3: herbicidal effect by foliage application, Wagner pot (Table 18, symbol D); assay type: in vivo, chinese sprangletop (Leptochloa chinensis)
Method in brief: as §3

persian speedwell [25] = test: Test Example 4: herbicidal effect by soil treatment (Table 19, symbol R); assay type: in vivo, Persian speedwell (Veronica persica); details: amount of applied herbicide 320 g/ha
Method in brief: as §2

[26] = foliage application, AAH 320 g/ha
[27] = amount of applied herbicide 320 g/ha
[28] = amount of applied herbicide 320 g/ha, foliage application after 14-day growth

Cc1nn(C)c(=O)c(-c2c(-c3ccc(OC(F)F)cc3)sc3ccc(F)cc23)c1OS(=O)(=O)C(C)C [2-309]
J: blackgrass, herbicidal effect (criteria 0-5) (blackgrass [1]; [26]): 3 (Herbicidal rate of 40% or more and less than 70%) | herbicidal effect on M: velvetleaf (velvetleaf [2]): 1 (Herbicidal rate of 5% or more and less than 20%) | herbicidal effect on I: wild oat (wild oat [3]): 0 (Herbicidal rate of 5% or less (almost no effect)) | herbicidal effect on F: southern crabgrass (southern crabgrass [4]): 0 (Herbicidal rate of 5% or less (almost no effect)) | herbicidal effect on H: barnyard grass (barnyard grass [5]; [27]): 5 (Herbicidal rate of 90% or more (almost completely withered)) | herbicidal effect on E: rice flat sedge (rice flat sedge; [27]): 5 (Herbicidal rate of 90% or more (almost completely withered)) | herbicidal effect on H: barnyard grass (barnyard grass [6]): 0 (Herbicidal rate of 5% or less (almost no effect)) | I: wild oat, herbicidal effect (criteria 0-5) (wild oat [7]; [26]): 1 (Herbicidal rate of 5% or more and less than 20%) | N: redroot pigweed, herbicidal effect (criteria 0-5) (redroot pigweed [8]; [26]): 5 (Herbicidal rate of 90% or more (almost completely withered)) | K: Italian ryegrass, herbicidal effect (criteria 0-5) (Italian ryegrass [9]; [26]): 4 (Herbicidal rate of 70% or more and less than 90%) | herbicidal effect on K: Italian ryegrass (Italian ryegrass [10]): 0 (Herbicidal rate of 5% or less (almost no effect)) | P: chickweed, herbicidal effect (criteria 0-5) (chickweed [11]; [26]): 5 (Herbicidal rate of 90% or more (almost completely withered)) | M: velvetleaf, herbicidal effect (criteria 0-5) (velvetleaf [12]; [26]): 5 (Herbicidal rate of 90% or more (almost completely withered)) | herbicidal effect on L: windgrass (windgrass [13]): 0 (Herbicidal rate of 5% or less (almost no effect)) | O: lambsquarters, herbicidal effect (criteria 0-5) (lambsquarters [14]; [26]): 5 (Herbicidal rate of 90% or more (almost completely withered)) | R: persian speedwell, herbicidal effect (criteria 0-5) (persian speedwell [15]; [26]): 5 (Herbicidal rate of 90% or more (almost completely withered)) | herbicidal effect on O: lambsquarters (lambsquarters [16]): 4 (Herbicidal rate of 70% or more and less than 90%) | herbicidal effect on N: redroot pigweed (redroot pigweed [17]): 5 (Herbicidal rate of 90% or more (almost completely withered)) | Q: false cleavers, herbicidal effect (criteria 0-5) (false cleavers; [26]): 4 (Herbicidal rate of 70% or more and less than 90%) | F: southern crabgrass, herbicidal effect (criteria 0-5) (southern crabgrass [18]; [26]): 0 (Herbicidal rate of 5% or less (almost no effect)) | G: green foxtail, herbicidal effect (criteria 0-5) (green foxtail [19]; [26]): 5 (Herbicidal rate of 90% or more (almost completely withered)) | H: barnyard grass, herbicidal effect (criteria 0-5) (barnyard grass [20]; [26]): 5 (Herbicidal rate of 90% or more (almost completely withered)) | L: windgrass, herbicidal effect (criteria 0-5) (windgrass [21]; [26]): 1 (Herbicidal rate of 5% or more and less than 20%) | herbicidal effect on P: chickweed (chickweed [22]): 3 (Herbicidal rate of 40% or more and less than 70%) | herbicidal effect on G: green foxtail (green foxtail [23]): 0 (Herbicidal rate of 5% or less (almost no effect)) | herbicidal effect on J: blackgrass (blackgrass [24]): 0 (Herbicidal rate of 5% or less (almost no effect)) | herbicidal effect on D: Chinese sprangletop (Chinese sprangletop; [27]): 3 (Herbicidal rate of 40% or more and less than 70%) | herbicidal effect on R: persian speedwell (persian speedwell [25]): 5 (Herbicidal rate of 90% or more (almost completely withered))

COc1ccc(-c2sc3cc(F)c(F)cc3c2-c2c(O)c(C)nn(C)c2=O)cc1 [5-014]
Herbicidal effect by foliage application, J: blackgrass (blackgrass [1]; [28]): 0 (Herbicidal rate of 5% or less (almost no effect)) | M: velvetleaf, herbicidal effect grade (velvetleaf [2]): 4 (Herbicidal rate of 70% or more and less than 90%) | I: wild oat, herbicidal effect grade (wild oat [3]): 0 (Herbicidal rate of 5% or less (almost no effect)) | F: southern crabgrass, herbicidal effect grade (southern crabgrass [4]): 0 (Herbicidal rate of 5% or less (almost no effect)) | herbicidal effect on barnyard grass (H) (barnyard grass [5]; 320 g/ha): 4 (Herbicidal rate of 70% or more and less than 90%) | herbicidal effect on rice flat sedge (E) (rice flat sedge; 320 g/ha): 5 (Herbicidal rate of 90% or more (almost completely withered)) | H: barnyard grass, herbicidal effect grade (barnyard grass [6]): 2 (Herbicidal rate of 20% or more and less than 40%) | Herbicidal effect by foliage application, I: wild oat (wild oat [7]; [28]): 0 (Herbicidal rate of 5% or less (almost no effect)) | Herbicidal effect by foliage application, N: redroot pigweed (redroot pigweed [8]; [28]): 5 (Herbicidal rate of 90% or more (almost completely withered)) | Herbicidal effect by foliage application, K: Italian ryegrass (Italian ryegrass [9]; [28]): 4 (Herbicidal rate of 70% or more and less than 90%) | K: Italian ryegrass, herbicidal effect grade (Italian ryegrass [10]): 0 (Herbicidal rate of 5% or less (almost no effect)) | Herbicidal effect by foliage application, P: chickweed (chickweed [11]; [28]): 5 (Herbicidal rate of 90% or more (almost completely withered)) | Herbicidal effect by foliage application, M: velvetleaf (velvetleaf [12]; [28]): 5 (Herbicidal rate of 90% or more (almost completely withered)) | L: windgrass, herbicidal effect grade (windgrass [13]): 0 (Herbicidal rate of 5% or less (almost no effect)) | Herbicidal effect by foliage application, O: lambsquarters (lambsquarters [14]; [28]): 5 (Herbicidal rate of 90% or more (almost completely withered)) | Herbicidal effect by foliage application, R: persian speedwell (persian speedwell [15]; [28]): 5 (Herbicidal rate of 90% or more (almost completely withered)) | O: lambsquarters, herbicidal effect grade (lambsquarters [16]): 5 (Herbicidal rate of 90% or more (almost completely withered)) | N: redroot pigweed, herbicidal effect grade (redroot pigweed [17]): 5 (Herbicidal rate of 90% or more (almost completely withered)) | Herbicidal effect by foliage application, Q: false cleavers (false cleavers; [28]): 4 (Herbicidal rate of 70% or more and less than 90%) | Herbicidal effect by foliage application, F: southern crabgrass (southern crabgrass [18]; [28]): 3 (Herbicidal rate of 40% or more and less than 70%) | Herbicidal effect by foliage application, G: green foxtail (green foxtail [19]; [28]): 2 (Herbicidal rate of 20% or more and less than 40%) | Herbicidal effect by foliage application, H: barnyard grass (barnyard grass [20]; [28]): 2 (Herbicidal rate of 20% or more and less than 40%) | Herbicidal effect by foliage application, L: windgrass (windgrass [21]; [28]): 0 (Herbicidal rate of 5% or less (almost no effect)) | P: chickweed, herbicidal effect grade (chickweed [22]): 3 (Herbicidal rate of 40% or more and less than 70%) | G: green foxtail, herbicidal effect grade (green foxtail [23]): 1 (Herbicidal rate of 5% or more and less than 20%) | J: blackgrass, herbicidal effect grade (blackgrass [24]): 0 (Herbicidal rate of 5% or less (almost no effect)) | herbicidal effect on Chinese sprangletop (D) (Chinese sprangletop; 320 g/ha): 0 (Herbicidal rate of 5% or less (almost no effect)) | R: persian speedwell, herbicidal effect grade (persian speedwell [25]): 5 (Herbicidal rate of 90% or more (almost completely withered))
